Our source for the Activity, IC50 and inhibition values is ChEMBL document CHEMBL1158003, “Discorhabdin P, a new enzyme inhibitor from a deep-water Caribbean sponge of the genus Batzella” (J Nat Prod, 1999).

Assay [1] addresses T1, Caspase-3 (Homo sapiens) (UniProt P42574).
T1 sequence (whole entry): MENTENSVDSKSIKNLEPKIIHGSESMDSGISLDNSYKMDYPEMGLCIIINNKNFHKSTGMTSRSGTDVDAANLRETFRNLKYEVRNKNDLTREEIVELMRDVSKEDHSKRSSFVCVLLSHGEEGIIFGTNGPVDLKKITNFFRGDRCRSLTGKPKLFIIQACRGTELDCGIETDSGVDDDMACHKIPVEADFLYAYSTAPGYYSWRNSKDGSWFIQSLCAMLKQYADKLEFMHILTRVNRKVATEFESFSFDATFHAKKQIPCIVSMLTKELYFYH
As to the kind of experiment: Inhibition of CPP32 peptidase activity at 5 ug/mL.

Assay [2] is filed under the species Bos taurus. As to the kind of experiment: Inhibition of bovine brain calcineurin phosphatase activity at 5 ug/mL.
Assay [3] relates to P388. The assay can be described thus: Cytotoxicity against mouse P388 cells. The class given is functional, cell-based.
The test system of assay [4] is A549. The assay can be described thus: Cytotoxicity against human A549 cells. The class given is functional, cell-based.
The nature of assay [5]: Inhibition of bovine brain calcineurin phosphatase activity. Details: species or system Bos taurus.
Assay [6] addresses T1, Caspase-3 (Homo sapiens). The assay can be described thus: Inhibition of CPP32 peptidase activity at 50 nM.

Values after ≈ are worked out from the molar mass of the structure shown. Active and inactive are the calls of the source. The rule behind the calls is not given here.

A word on the IC50: it is the point on the concentration scale where inhibition reaches its midpoint. A word on the inhibition: it is the percentage by which the read-out fell short of the control. A high value points to a strong effect.

On to `O=C1C(Br)=CC2(C=C1Br)CCNC1=C2C2=NCCc3c[nH]c(c32)C1=O`, for which the result in assay [1] and in assay [2] was inactive.

With `Cn1cc2c3c1C(=O)C1=C(C3=NCC2)C2(C=C(Br)C(=O)C(Br)=C2)CCN1` [DISCORHABDIN], the values for the IC50 in assay [3], in assay [4] and in assay [5] were 0.025 µg/mL (≈ 0.0524 µM), 0.41 µg/mL (≈ 0.859 µM) and 0.55 µg/mL (≈ 1.15 µM), respectively.

Consider `CC(C)[C@H](NC(=O)[C@H](CCC(=O)O)NC(=O)[C@@H](N)CC(=O)O)C(=O)N[C@H](C=O)CC(=O)O`, for which, in assay [6], the inhibition turned out to be 90%.
